Key:
[1] = test system: healthy subjects; assay: Scale of Social Responsibility (SSR); format: in vivo, human
Method: In some embodiments, the Scale of Social Responsibility (SSR) is utilized to evaluate the safety and/or efficacy of psilocybin. The SSR measures perceptions regarding the importance of ethics and social responsibility.
The following list of outcome measures are non-exhaustive. • a. The short-term change from Baseline (Day −1 [Visit 2]) to Day 7 (Visit 5) in cognitive measures of attention, spatial and working memory and executive function was measured by a composite score of the CANTAB Panel (Spatial Working Memory [SWM], Rapid Visual Information Processing [RVP], Paired Associates Learning [PAL]). • b. The short-term change from Baseline (Day −1 [Visit 2]) to Day 7 (Visit 5) in Social Cognition Panel scales (Pictorial Empathy Test [PET], Reading the Mind in the Eyes Test [RMET], Toronto Empathy Questionnaire [TEQ], Social Value Orientation [SVO], Scale of Social Responsibility [SSR]). • c. The change from Baseline (Day −1 [Visit 2]) to Day 28 (Visit 6) in cognitive measures of attention, spatial and working memory and executive function as measured by a composite score of the CANTAB Panel (SWM, RVP, PAL). • d. The long-term change from Baseline (Day −1 [Visit 2]) to Day 84 (Visit 7) in Social Cognition Panel scales (PET, RMET, TEQ, SVO, SSR). • e. Dose-related differences between cognitive effects of psilocybin at Baseline (Day −1 [Visit 2]), Day 7 (Visit 5) and Day 28 (Visit 6), as measured by a composite score of the CANTAB Panel (SWM, RVP, PAL). • f. Dose-related differences between psychological effects of psilocybin at Baseline (Day −1 [Visit 2]), Day 7 (Visit 5) and Day 84 (Visit 7), as measured by Social Cognition Panel scales (PET, RMET, TEQ, SVO, SSR). • g. Differences in cognitive effects of psilocybin between psilocybin-naïve and experienced subjects at Baseline (Day −1 [Visit 2]), Day 7 (Visit 5) and Day 28 (Visit 6), as measured by a composite score of the CANTAB Panel (SWM, RVP, PAL). • h. Differences in Positive and Negative Affect Schedule (PANAS) after study drug administration on Day 0 (Visit 3). • i. Differences between psilocybin and placebo in the Emotion Recognition Test (ERT), Intra-Extra Dimensional Set Shift (IED), One Touch Stockings (OTS), Verbal Fluency and Digit Span Forward at Day 7 (Visit 5). • j. A composite score of the CANTAB Panel, including the following tests: • i. Spatial Working Memory (SWM) (performed at Visit 2, Visit 5, and Visit 6). • ii. Rapid Visual Information Processing (RVP) (performed at Visit 2, Visit 5, and Visit 6). • iii. Paired Associates Learning (PAL) (performed at Visit 2, Visit 5, and Visit 6). • k. Cognitive Flexibility Panel • i. Emotion Recognition Task (ERT) (performed at Visit 5). • ii. Intra-Extra Dimensional Set Shift (IED) (performed at Visit 5). • iii. One Touch Stockings (OTS) (performed at Visit 5). • iv. Verbal Fluency (performed at Visit 5). • v. Digit Span Forward (performed at Visit 5). • l. Five Dimension Altered States of Consciousness questionnaire (5D-ASC) (performed at Visit 3). • m. PANAS (performed at Visit 2 and Visit 3). • n. NEO-Five Factor Inventory (NEO-FFI) (performed at Visit 2, Visit 5, and Visit 7). • o. Symptom Checklist-90 item (SCL-90) (performed at Visit 2, Visit 5, and Visit 7). • p. Life Changes Inventory (LCI): The LCI measures changes in attitudes and values after near-death experiences often used to evaluate personal transformation following spiritually oriented experiences and practices. (performed at Visit 5 and Visit 7). • q. Social Cognition Panel scales • i. Pictorial Empathy Test (PET) (performed at Visit 2, Visit 5, and Visit 7). • ii. Reading the Mind in the Eyes Test (RMET) (performed at Visit 2, Visit 5, and Visit 7). • iii. Social Value Orientation (SVO) (performed at Visit 2, Visit 5, and Visit 7). • iv. Toronto Empathy Questionnaire (TEQ) (performed at Visit 2, Visit 5, and Visit 7). • v. Scale of Social Responsibility (SSR) (performed at Visit 2, Visit 5, and Visit 7). • r. Sheehan Suicidality Tracking Scale (SSTS) • s. […]

[2] = test system: subjects with chronic cluster headaches (CCH); assay: Chronic cluster headaches study (headache logs); format: in vivo, human; conditions: 0.14 mg/kg perorally x3; same subject
Text: The study took place over a 10 week period which consisted of a baseline observation period, 3 psilocybin sessions, and a follow-up period in subjects with CCH (FIG. 27). Throughout the course of the study, subjects completed questionnaires and headache logs in order to access headache frequency, duration, and severity.
Before the beginning of the study, subjects taking prophylactic medication underwent a 2 week wash-out period to eliminate medication. Subjects then began a baseline observation period lasting 4 weeks during which the subjects received a functional MRI (magnetic resonance imaging) scan. After the observation period, subjects were perorally administered their first dose of 0.14 mg/kg psilocybin. Blood samples were collected during the initial dosing session to establish psilocin plasma concentrations. Over the next two weeks, subjects were administered two additional doses of psilocybin with each dose administered one week apart. The last psilocybin dose was followed by 4 weeks of observation that included a functional MRI scan one week after the last psilocybin dose. Subjects were also contacted 6 and 12 months after the last psilocybin dose to gain information about the duration of potential remission periods. All regular acute treatments were permitted during the study period and recorded in the headache diary. […]

CN(C)CCc1c[nH]c2cccc(OP(=O)(O)O)c12 [psilocybin]
SSR compliance social rules change from baseline, LS mean difference Psilocybin 10 mg - Placebo ([1]; Day 7, MMRM): 0.0
SSR compliance social rules change from baseline, LS mean difference Psilocybin 25 mg - Placebo ([1]; Day 7, MMRM): 0.1
SSR compliance social rules change from baseline, LS mean difference Psilocybin 25 mg-10 mg ([1]; Day 7, MMRM): 0.1
SSR fulfilling expectations change from baseline, LS mean difference Psilocybin 10 mg - Placebo ([1]; Day 7, MMRM): 0.1
SSR fulfilling expectations change from baseline, LS mean difference Psilocybin 25 mg - Placebo ([1]; Day 7, MMRM): 0.2
SSR fulfilling expectations change from baseline, LS mean difference Psilocybin 25 mg-10 mg ([1]; Day 7, MMRM): 0.1
SSR global change from baseline, LS mean difference Psilocybin 10 mg - Placebo ([1]; Day 7, MMRM): 1.2
SSR global change from baseline, LS mean difference Psilocybin 25 mg - Placebo ([1]; Day 7, MMRM): 2.8
SSR global change from baseline, LS mean difference Psilocybin 25 mg-10 mg ([1]; Day 7, MMRM): 1.6
SSR compliance social rules change from baseline, LS mean difference Psilocybin 10 mg - Placebo ([1]; Day 84, MMRM): −0.0
SSR compliance social rules change from baseline, LS mean difference Psilocybin 25 mg - Placebo ([1]; Day 84, MMRM): 0.1
SSR compliance social rules change from baseline, LS mean difference Psilocybin 25 mg-10 mg ([1]; Day 84, MMRM): 0.1
SSR fulfilling expectations change from baseline, LS mean difference Psilocybin 10 mg - Placebo ([1]; Day 84, MMRM): −0.1
SSR fulfilling expectations change from baseline, LS mean difference Psilocybin 25 mg - Placebo ([1]; Day 84, MMRM): 0.0
SSR fulfilling expectations change from baseline, LS mean difference Psilocybin 25 mg-10 mg ([1]; Day 84, MMRM): 0.2
SSR global change from baseline, LS mean difference Psilocybin 10 mg - Placebo ([1]; Day 84, MMRM): 0.3
SSR global change from baseline, LS mean difference Psilocybin 25 mg - Placebo ([1]; Day 84, MMRM): 2.2
SSR global change from baseline, LS mean difference Psilocybin 25 mg-10 mg ([1]; Day 84, MMRM): 1.8
SSR fulfilling expectations change from baseline, LS mean ([1]; Psilocybin 10 mg, Day 7, MMRM): −0.1
SSR fulfilling expectations change from baseline, LS mean ([1]; Psilocybin 10 mg, Day 84, MMRM): 0.2
SSR fulfilling expectations change from baseline, LS mean ([1]; Psilocybin 25 mg, Day 7, MMRM): −0.0
SSR fulfilling expectations change from baseline, LS mean ([1]; Psilocybin 25 mg, Day 84, MMRM): −0.0
Cluster headache with pain greater than normal [2]: at least one very painful cluster headache

From patent publication US11865126B2, “Method for treating anxiety disorders, headache disorders, and eating disorders with psilocybin” (priority 2019, dated 2024)
